Measured values reported in patent US6358885B1, “Substituted phenylheterocyclic herbicides” (Mississippi State University, priority 1992, dated 2002).

Assays:
Assay in all cases: Test B preemergence/postemergence greenhouse plant response rating 0 to 10
blackgrass = assay type: in vivo, Alopecurus myosuroides; details: for Plant response rating, Blackgrass: 0 to 10 scale
Outline: (§1)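 Planted seeds are treated preemergence with compound dissolved in a non-phytotoxic solvent, while postemergence applications go onto plants of two to eighteen cm. Plants stay in the greenhouse twelve to sixteen days and are then rated visually relative to controls.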

wild oat = assay type: in vivo, Avena fatua; details: for Plant response rating, Wild oat: 0 to 10 scale; for Plant response rating (0 to 10 scale), Wild oat: Rate 100 g/ha
Outline: as §1

sugar beet = assay type: in vivo, Beta vulgaris; details: for Plant response rating, Sugar beet: 0 to 10 scale; for Plant response rating (0 to 10 scale), Sugar beet: Rate 100 g/ha
Outline: as §1

bedstraw = assay type: in vivo, Galium aparine; details: for Plant response rating, Bedstraw: 0 to 10 scale
Outline: as §1

cocklebur = assay type: in vivo, Xanthium pensylvanicum; details: for Plant response rating, Cocklebur: 0 to 10 scale
Outline: as §1

morningglory = assay type: in vivo, Ipomoea hederacea; details: for Plant response rating, Morningglory: 0 to 10 scale; for Plant response rating (0 to 10 scale), Morningglory: Rate 100 g/ha
Outline: as §1

## Clc1ccc(-c2nc3n(c2Cl)CCC=C3)c(Cl)c1 [Compound 1]
blackgrass; POSTEMERGENCE, Rate 50 g/ha
  Plant response rating (0 to 10 scale), Blackgrass: 0
blackgrass; POSTEMERGENCE, Rate 200 g/ha
  Plant response rating, Blackgrass: 1
blackgrass; PREEMERGENCE, Rate 50 g/ha
  Plant response rating, Blackgrass: 0
blackgrass; Rate 200 g/ha, PREEMERGENCE
  Plant response rating, Blackgrass: 0
Wild oat; POSTEMERGENCE, Rate 50 g/ha
  Plant response rating, Wild oat: 2
Wild oat; POSTEMERGENCE, Rate 200 g/ha
  Plant response rating, Wild oat: 2
Wild oat; Rate 200 g/ha, PREEMERGENCE
  Plant response rating, Wild oat: 0
Sugar beet; POSTEMERGENCE, Rate 50 g/ha
  Plant response rating, Sugar beet: 8
Sugar beet; POSTEMERGENCE, Rate 200 g/ha
  Plant response rating, Sugar beet: 10
Sugar beet; PREEMERGENCE, Rate 50 g/ha
  Plant response rating, Sugar beet: 0
Sugar beet; Rate 200 g/ha, PREEMERGENCE
  Plant response rating, Sugar beet: 0
bedstraw; POSTEMERGENCE, Rate 50 g/ha
  Plant response rating (0 to 10 scale), Bedstraw: 3
bedstraw; POSTEMERGENCE, Rate 200 g/ha
  Plant response rating, Bedstraw: 3
bedstraw; PREEMERGENCE, Rate 50 g/ha
  Plant response rating, Bedstraw: 0
bedstraw; Rate 200 g/ha, PREEMERGENCE
  Plant response rating, Bedstraw: 0
cocklebur; POSTEMERGENCE, Rate 50 g/ha
  Plant response rating (0 to 10 scale), Cocklebur: 4
cocklebur; POSTEMERGENCE, Rate 200 g/ha
  Plant response rating, Cocklebur: 4
cocklebur; PREEMERGENCE, Rate 50 g/ha
  Plant response rating, Cocklebur: 0
cocklebur; Rate 200 g/ha, PREEMERGENCE
  Plant response rating, Cocklebur: 0
morningglory; POSTEMERGENCE, Rate 50 g/ha
  Plant response rating, Morningglory: 6
morningglory; POSTEMERGENCE, Rate 200 g/ha
  Plant response rating, Morningglory: 7
morningglory; PREEMERGENCE, Rate 50 g/ha
  Plant response rating, Morningglory: 0
morningglory; Rate 200 g/ha, PREEMERGENCE
  Plant response rating, Morningglory: 0

## Clc1ccc(-c2nc3n(c2Br)CCCC3)c(Cl)c1 [Compound 2]
blackgrass; POSTEMERGENCE, Rate 50 g/ha
  Plant response rating (0 to 10 scale), Blackgrass: 1
blackgrass; POSTEMERGENCE, Rate 100 g/ha
  Plant response rating (0 to 10 scale), Blackgrass: 1
blackgrass; POSTEMERGENCE, Rate 200 g/ha
  Plant response rating, Blackgrass: 1
blackgrass; POSTEMERGENCE, Rate 400 g/ha
  Plant response rating, Blackgrass: 2
blackgrass; PREEMERGENCE, Rate 50 g/ha
  Plant response rating, Blackgrass: 0
blackgrass; PREEMERGENCE, Rate 100 g/ha
  Plant response rating (0 to 10 scale), Blackgrass: 0
blackgrass; PREEMERGENCE, Rate 400 g/ha
  Plant response rating, Blackgrass: 0
blackgrass; Rate 200 g/ha, PREEMERGENCE
  Plant response rating, Blackgrass: 0
Wild oat; POSTEMERGENCE, Rate 50 g/ha
  Plant response rating, Wild oat: 2
Wild oat; POSTEMERGENCE
  Plant response rating (0 to 10 scale), Wild oat: 2
Wild oat; POSTEMERGENCE, Rate 200 g/ha
  Plant response rating, Wild oat: 3
Wild oat; POSTEMERGENCE, Rate 400 g/ha
  Plant response rating, Wild oat: 3
Wild oat; PREEMERGENCE
  Plant response rating (0 to 10 scale), Wild oat: 0
Wild oat; PREEMERGENCE, Rate 400 g/ha
  Plant response rating, Wild oat: 0
Wild oat; Rate 200 g/ha, PREEMERGENCE
  Plant response rating, Wild oat: 0
Sugar beet; POSTEMERGENCE, Rate 50 g/ha
  Plant response rating, Sugar beet: 9
Sugar beet; POSTEMERGENCE
  Plant response rating (0 to 10 scale), Sugar beet: 9
Sugar beet; POSTEMERGENCE, Rate 200 g/ha
  Plant response rating, Sugar beet: 10
Sugar beet; POSTEMERGENCE, Rate 400 g/ha
  Plant response rating, Sugar beet: 10
Sugar beet; PREEMERGENCE, Rate 50 g/ha
  Plant response rating, Sugar beet: 0
Sugar beet; PREEMERGENCE
  Plant response rating (0 to 10 scale), Sugar beet: 0
Sugar beet; Rate 200 g/ha, PREEMERGENCE
  Plant response rating, Sugar beet: 0
bedstraw; POSTEMERGENCE, Rate 50 g/ha
  Plant response rating (0 to 10 scale), Bedstraw: 3
bedstraw; POSTEMERGENCE, Rate 100 g/ha
  Plant response rating (0 to 10 scale), Bedstraw: 3
bedstraw; POSTEMERGENCE, Rate 200 g/ha
  Plant response rating, Bedstraw: 4
bedstraw; POSTEMERGENCE, Rate 400 g/ha
  Plant response rating, Bedstraw: 3
bedstraw; PREEMERGENCE, Rate 50 g/ha
  Plant response rating, Bedstraw: 0
bedstraw; PREEMERGENCE, Rate 100 g/ha
  Plant response rating (0 to 10 scale), Bedstraw: 0
bedstraw; PREEMERGENCE, Rate 400 g/ha
  Plant response rating, Bedstraw: 0
bedstraw; Rate 200 g/ha, PREEMERGENCE
  Plant response rating, Bedstraw: 3
cocklebur; POSTEMERGENCE, Rate 50 g/ha
  Plant response rating (0 to 10 scale), Cocklebur: 7
cocklebur; POSTEMERGENCE, Rate 100 g/ha
  Plant response rating (0 to 10 scale), Cocklebur: 7
cocklebur; POSTEMERGENCE, Rate 200 g/ha
  Plant response rating, Cocklebur: 6
cocklebur; POSTEMERGENCE, Rate 400 g/ha
  Plant response rating, Cocklebur: 8
cocklebur; PREEMERGENCE, Rate 50 g/ha
  Plant response rating, Cocklebur: 0
cocklebur; PREEMERGENCE, Rate 100 g/ha
  Plant response rating (0 to 10 scale), Cocklebur: 0
cocklebur; PREEMERGENCE, Rate 400 g/ha
  Plant response rating, Cocklebur: 0
cocklebur; Rate 200 g/ha, PREEMERGENCE
  Plant response rating, Cocklebur: 0
morningglory; POSTEMERGENCE, Rate 50 g/ha
  Plant response rating, Morningglory: 9
morningglory; POSTEMERGENCE
  Plant response rating (0 to 10 scale), Morningglory: 9
morningglory; POSTEMERGENCE, Rate 200 g/ha
  Plant response rating, Morningglory: 9
morningglory; POSTEMERGENCE, Rate 400 g/ha
  Plant response rating, Morningglory: 9
morningglory; PREEMERGENCE, Rate 50 g/ha
  Plant response rating, Morningglory: 0
morningglory; PREEMERGENCE
  Plant response rating (0 to 10 scale), Morningglory: 0
morningglory; PREEMERGENCE, Rate 400 g/ha
  Plant response rating, Morningglory: 2
morningglory; Rate 200 g/ha, PREEMERGENCE
  Plant response rating, Morningglory: 0
